From US8987249B2, “Substituted 2-Aza-bicyclo[2.2.1]heptane-3-carboxylic acid (benzyl-cyano-methyl)-amides inhibitors of Cathepsin C” (Boehringer Ingelheim International GmbH, priority 2013, dated 2015)
pIC50: −log10 of the molar value.

How the values were obtained:
[1] = molecular target: recombinant human DPPI (Cathepsin C) (Homo sapiens (Human), UniProt P53634); test: Inhibition of human DPPI (Cathepsin C); type: biochemical; conditions: substrate Gly-Arg-AMC
In short: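 Recombinant human DPPI in MES buffer pH 6.0 (5 mM DTT, 0.1% BSA); fluorogenic substrate at 50 μM final, 30 min at room temperature, stopped with 1 μM Gly-Phe-DMK. Background-subtracted fluorescence expressed as percent of vehicle control; IC50 derived.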

[2] = molecular target: recombinant human Cathepsin K (Homo sapiens (Human), UniProt P43235); test: Inhibition of human Cathepsin K; type: biochemical; conditions: substrate Z-Gly-Pro-Arg-AMC
In short: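 Proenzyme activated in pH 3.5 sodium acetate for 30 min at room temperature. Enzyme (2 ng/μL final) preincubated 10 min with compound (0.1 nM–100 μM, 1% DMSO) in pH 5.5 acetate/EDTA/L-cysteine buffer, then reacted 60 min at room temperature with Z-Gly-Pro-Arg-AMC. Stopped with 1 μM E64; fluorescence Ex 360/Em 460 nm; IC50 from background-subtracted percent of vehicle control.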

[3] = Determination of metabolic stability with human liver microsomes; conditions: human, pooled human liver microsomes, pH 7.6
Method: Determination of Metabolic Stability with Human Liver Microsomes
The metabolic degradation of the test compound is assayed at 37° C. with pooled human liver microsomes. The final incubation volume of 100 μl per time point contains TRIS buffer pH 7.6 (0.1 M), magnesium chloride (5 mM), microsomal protein (1 mg/ml) and the test compound at a final concentration of 1 μM. Following a short preincubation period at 37° C., the reactions are initiated by addition of beta-nicotinamide adenine dinucleotide phosphate, reduced form (NADPH, 1 mM) and terminated by transferring an aliquot into acetonitrile after different time points. Additionally, the NADPH-independent degradation is monitored in incubations without NADPH, terminated at the last time point. The [%] remaining test compound after NADPH independent incubation is reflected by the parameter c (control) (metabolic stability). The quenched incubations are pelleted by centrifugation (10,000 g, 5 min). An aliquot of the supernatant is assayed by LC-MS/MS for the amount of parent compound.
The half-life (t½ INVITRO) is determined by the slope of the semilogarithmic plot of the concentration-time profile.

recombinant human Cathepsin K, sequence (P43235 115-329): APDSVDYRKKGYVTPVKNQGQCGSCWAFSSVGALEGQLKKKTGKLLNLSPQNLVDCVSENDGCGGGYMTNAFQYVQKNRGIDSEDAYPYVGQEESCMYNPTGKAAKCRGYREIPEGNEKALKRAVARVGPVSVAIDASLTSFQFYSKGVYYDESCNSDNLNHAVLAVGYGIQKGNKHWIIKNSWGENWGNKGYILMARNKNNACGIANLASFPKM
recombinant human DPPI (Cathepsin C), sequence (P53634 231-394): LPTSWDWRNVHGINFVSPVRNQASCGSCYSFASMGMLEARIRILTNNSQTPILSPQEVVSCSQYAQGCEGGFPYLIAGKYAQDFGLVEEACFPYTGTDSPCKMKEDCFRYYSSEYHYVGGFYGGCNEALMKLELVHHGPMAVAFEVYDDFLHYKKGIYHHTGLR
recombinant human DPPI (Cathepsin C), sequence (P53634 395-463): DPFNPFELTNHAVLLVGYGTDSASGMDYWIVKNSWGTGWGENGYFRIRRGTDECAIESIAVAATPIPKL
recombinant human DPPI (Cathepsin C), sequence (P53634 25-134): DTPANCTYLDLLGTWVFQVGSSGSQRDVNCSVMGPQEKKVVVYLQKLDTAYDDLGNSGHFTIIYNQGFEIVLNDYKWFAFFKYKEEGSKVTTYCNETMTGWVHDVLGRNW

Compound	pIC50 [1]	pIC50 [2]	half-life at 1 μM [3] [h]
N#C[C@H](Cc1ccc(-c2cc(-c3ccccc3)no2)cc1F)NC(=O)[C@H]1N[C@@H]2CC[C@H]1C2 [Example 96]	7.70	5.26	1.37
N#CC(Cc1ccc(-c2ncc(Cl)cn2)cc1F)NC(=O)[C@H]1N[C@@H]2CC[C@H]1C2 (stereo partly drawn) [Example 98]	7.69	5.08	> 2.17
N#C[C@H](Cc1ccc(-n2cc(CCN3CCOCC3)nn2)cc1F)NC(=O)[C@H]1N[C@@H]2CC[C@H]1C2 [Example 99]	7.68	5.54	> 2.17
Cn1nc(C(F)(F)F)cc1-c1ccc(C[C@@H](C#N)NC(=O)[C@H]2N[C@@H]3CC[C@H]2C3)c(F)c1 [Example 100]	7.65	5.09	> 2.17
N#C[C@H](Cc1ccc(-n2cc(COC(=O)N3CCCC3)nn2)cc1F)NC(=O)[C@H]1N[C@@H]2CC[C@H]1C2 [Example 106]	7.59	5.28	> 2.17
N#CC(Cc1ccc(-c2ccc(Cl)nn2)cc1F)NC(=O)[C@H]1N[C@@H]2CC[C@H]1C2 (stereo partly drawn) [Example 108]	7.58	5.03	> 2.17
COCc1cn(-c2ccc(C[C@@H](C#N)NC(=O)[C@H]3N[C@@H]4CC[C@H]3C4)c(F)c2)nn1 [Example 111]	7.50	5.37	> 2.17
N#Cc1ccc(-c2ccc(C[C@@H](C#N)NC(=O)[C@H]3N[C@H]4C[C@@H]3[C@@H]3C[C@@H]34)c(F)c2)cc1F [Example 132]	7.72	4.91	> 2.17
CS(=O)(=O)Nc1cccc(-c2ccc(C[C@@H](C#N)NC(=O)[C@H]3N[C@H]4C[C@@H]3[C@@H]3C[C@@H]34)c(F)c2)c1 [Example 139]	7.93	5.32	> 2.17
N#C[C@H](Cc1ccc(-c2ccc3c(c2)CNC3=O)cc1F)NC(=O)[C@H]1N[C@H]2C[C@@H]1[C@@H]1C[C@@H]12 [Example 147]	8.21	5.01	> 2.17
CS(=O)(=O)c1cc(-c2ccc(C[C@@H](C#N)NC(=O)[C@H]3N[C@@H]4CC[C@H]3C4)c(F)c2)ccc1F [Example 152]	8.68	5.21	> 2.17
N#C[C@H](Cc1ccc(-c2cccc(S(=O)(=O)C3CC3)c2)cc1F)NC(=O)[C@H]1N[C@@H]2CC[C@H]1C2 [Example 153]	8.42	5.36	1.83
N#C[C@H](Cc1ccc(-c2csc(C(N)=O)c2)cc1F)NC(=O)[C@H]1N[C@@H]2CC[C@H]1C2 [Example 157]	9.05	5.13	> 2.17
COCCN1C(=O)Cc2ccc(-c3ccc(C[C@@H](C#N)NC(=O)[C@H]4N[C@@H]5CC[C@H]4C5)c(F)c3)cc21 [Example 158]	8.82	5.03	> 2.17
N#C[C@H](Cc1ccc(N2CCN(CCO)CC2)cc1F)NC(=O)[C@H]1N[C@@H]2CC[C@H]1C2 [Example 190]	7.96	5.43	> 2.17
CN1C(=O)C(C)(C)c2ccc(-c3ccc(C[C@@H](C#N)NC(=O)[C@H]4N[C@@H]5CC[C@H]4C5)c(F)c3)cc21 [Example 199]	7.80	4.93	1.47
N#C[C@H](Cc1ccc(-c2ccc(C(=O)NC3CCOCC3)cc2)cc1F)NC(=O)[C@H]1N[C@@H]2CC[C@H]1C2 [Example 200]	7.78	5.48	> 2.17
N#C[C@H](Cc1ccc(-c2cnn(CC3CCOCC3)c2)c(F)c1F)NC(=O)[C@H]1N[C@@H]2CC[C@H]1C2 [Example 218]	7.72	4.59	> 2.17
CC(=O)N1CCN(C(=O)c2cc(-c3ccc(C[C@@H](C#N)NC(=O)[C@H]4N[C@@H]5CC[C@H]4C5)c(F)c3)cs2)CC1 [Example 231]	8.66	5.62	> 2.17

Further lines, results first:

pIC50 [1]	pIC50 [2]	half-life at 1 μM [3] [h]	Compound
7.80	5.46	> 2.17	CC(=O)c1cn(-c2ccc(C[C@@H](C#N)NC(=O)[C@H]3N[C@@H]4CC[C@H]3C4)c(F)c2)nn1 [Example 90]
7.77	5.60	> 2.17	CS(=O)(=O)N1CCN(c2ccc(C[C@@H](C#N)NC(=O)[C@H]3N[C@@H]4CC[C@H]3C4)c(F)c2)CC1 [Example 91]
7.72	5.44	> 2.17	N#C[C@H](Cc1ccc(-c2ccc3c(c2)C(=O)NC3)cc1F)NC(=O)[C@H]1N[C@@H]2CC[C@H]1C2 [Example 95]
7.61	5.37	> 2.17	N#CC(Cc1ccc(-c2cnc(Cl)cn2)cc1F)NC(=O)[C@H]1N[C@@H]2CC[C@H]1C2 (stereo partly drawn) [Example 102]
7.60	5.28	> 2.17	CCOCc1cn(-c2ccc(C[C@@H](C#N)NC(=O)[C@H]3N[C@@H]4CC[C@H]3C4)c(F)c2)nn1 [Example 105]
7.57	5.35	> 2.17	CC(C)C(O)Cc1cn(-c2ccc(C[C@@H](C#N)NC(=O)[C@H]3N[C@@H]4CC[C@H]3C4)c(F)c2)nn1 (stereo partly drawn) [Example 109]
7.54	5.01	> 2.17	CCn1nccc1-c1ccc(C[C@@H](C#N)NC(=O)[C@H]2N[C@@H]3CC[C@H]2C3)c(F)c1 [Example 110]
7.48	5.25	> 2.17	COCCOCc1cn(-c2ccc(C[C@@H](C#N)NC(=O)[C@H]3N[C@@H]4CC[C@H]3C4)c(F)c2)nn1 [Example 112]
7.44	5.17	> 2.17	N#C[C@H](Cc1ccc(-c2cc[nH]n2)cc1F)NC(=O)[C@H]1N[C@@H]2CC[C@H]1C2 [Example 114]
7.41	5.11	> 2.17	N#CC(Cc1ccc(-c2cnn(C3CCOCC3)c2)cc1F)NC(=O)[C@H]1N[C@@H]2CC[C@H]1C2 (stereo partly drawn) [Example 116]
7.40	5.57	> 2.17	CN1CCC(c2ccc(C[C@@H](C#N)NC(=O)[C@H]3N[C@@H]4CC[C@H]3C4)c(F)c2)CC1 [Example 117]
7.99	5.21	> 2.17	N#C[C@H](Cc1ccc(-c2ccc(S(N)(=O)=O)cc2)cc1F)NC(=O)[C@H]1N[C@H]2C[C@@H]1[C@@H]1C[C@@H]12 [Example 136]
8.17	5.29	> 2.17	N#C[C@H](Cc1ccc(-c2cccc(S(N)(=O)=O)c2)cc1F)NC(=O)[C@H]1N[C@H]2C[C@@H]1[C@@H]1C[C@@H]12 [Example 143]
7.87	5.34	> 2.17	N#C[C@H](Cc1ccc(N2CCN(CC3CCCO3)CC2)cc1F)NC(=O)[C@H]1N[C@@H]2CC[C@H]1C2 (stereo partly drawn) [Example 154]
9.10	6.00	1.03	CN1CCN(S(=O)(=O)c2ccc(-c3ccc(C[C@@H](C#N)NC(=O)[C@H]4N[C@@H]5CC[C@H]4C5)c(F)c3)cc2)CC1 [Example 155]
9.22	5.11	1.58	CC1(C)OC(=O)c2ccc(-c3ccc(C[C@@H](C#N)NC(=O)[C@H]4N[C@@H]5CC[C@H]4C5)c(F)c3)cc21 [Example 156]
8.80	5.48	> 2.17	CS(=O)(=O)c1ccc(-c2ccc(C[C@@H](C#N)NC(=O)[C@H]3N[C@@H]4CC[C@H]3C4)c(F)c2)cc1C#N [Example 159]
8.47	5.20	> 2.17	N#C[C@H](Cc1ccc(-c2ccc(C(N)=O)o2)cc1F)NC(=O)[C@H]1N[C@@H]2CC[C@H]1C2 [Example 167]
8.18	4.86	> 2.17	CS(=O)(=O)c1ccc(-c2ccc(C[C@@H](C#N)NC(=O)[C@H]3N[C@@H]4CC[C@H]3C4)c(F)c2F)cc1 [Example 176]
8.07	5.01	> 2.17	N#C[C@H](Cc1ccc(-c2ccc3c(c2)NC(=O)C3)c(F)c1F)NC(=O)[C@H]1N[C@@H]2CC[C@H]1C2 [Example 181]
8.06	5.46	> 2.17	COCCN1CCN(c2ccc(C[C@@H](C#N)NC(=O)[C@H]3N[C@@H]4CC[C@H]3C4)c(F)c2)CC1 [Example 182]
8.05	5.77	> 2.17	CN1CCN(C(=O)c2ccc(-c3ccc(C[C@@H](C#N)NC(=O)[C@H]4N[C@@H]5CC[C@H]4C5)c(F)c3)cc2)CC1 [Example 185]
7.91	5.66	> 2.17	N#C[C@H](Cc1ccc(N2CCC(N3CCOCC3)CC2)cc1F)NC(=O)[C@H]1N[C@@H]2CC[C@H]1C2 [Example 193]
7.70	5.60	> 2.17	CCN1CCC(c2ccc(C[C@@H](C#N)NC(=O)[C@H]3N[C@@H]4CC[C@H]3C4)c(F)c2)CC1 [Example 201]
8.66	5.77	> 2.17	CS(=O)(=NC#N)c1cccc(-c2ccc(C[C@@H](C#N)NC(=O)[C@H]3N[C@@H]4CC[C@H]3C4)c(F)c2)c1 (stereo partly drawn) [Example 222]
8.74	5.23	> 2.17	N#C[C@H](Cc1ccc(-c2csc(C(=O)N3CCOCC3)c2)cc1F)NC(=O)[C@H]1N[C@@H]2CC[C@H]1C2 [Example 230]
